Reference: patent US7432264B2, “Antimicrobial biaryl compounds” (Isis Pharmaceuticals, Inc., priority 2000, dated 2008)
Values after ≈ are worked out from the molar mass of the structure shown. Read-outs that look alike come from different tables or passages of the source.

What was measured:
[1] = tested on: E. coli ATCC 25922; test: Minimum inhibitory concentration (MIC), E. coli; format: cell-based, Escherichia coli
Procedure: (§1) Bacterial Strains. The Streptococcus pyogenes strains, Klebsiella pneumoniae, Escherichia coli, Staphylococcus aureus, Enterococcus faecalis used in the antibacterial activity studies ATCC 14289, 49399, 13883, 25922, 13709, 29212, respectively, are obtained from the American Type Culture Collection, Rockville, Md. The strain E. coli imp— is a mutant strain of wild type E. coli with increased outer membrane permeability and was grown in LB broth at 37 °C. S. pyogenes strain is grown in Todd-Hewitt broth. S. aureus is grown in trypticase soy broth, E. faecalis in Todd-Hewitt broth, wild type E. coli and K. pneumoniae, in nutrient broth.
(§2) Determination of Minimum Inhibitory Concentrations (MICs). The assays were carried out in […] volume in duplicate in 96-well clear flat-bottom plates. The bacterial suspension from an overnight culture growth in appropriate medium was added to a solution of test compound in 4% DMSO in water. Final bacterial inoculum was approximately 10^5-10^6 CFU/well. The percent growth of the bacteria in test wells relative to that observed for a well containing no compound was determined by measuring absorbance at 595 nm (A595) after 24 h. […] Both ampicillin and tetracycline is used as antibiotic-positive controls in each screening assay for S. pyogenes, E. coli imp-, E. coli, S. aureus, E. faecalis, K pneumoniae and P. vulgaris. Ciprofloxacin is used as an antibiotic positive control in each screening assay for P. aeruginosa.

[2] = tested on: S. aureus ATCC 13709; test: Minimum inhibitory concentration (MIC), S. aureus; format: cell-based, Staphylococcus aureus
Procedure: as §1, §2

[3] = Escherichia coli, ATCC25922, 24 h, read-out: MIC (E. coli)
[4] = Staphylococcus aureus, ATCC13709, 24 h, read-out: MIC (S. aureus)

Structure (SMILES) | MIC [1, 3] [mM] | MIC [2, 4] [mM] | further results
CC(=O)NCC1CN(c2ccc(N3CCOCC3)c(F)c2)C(=O)O1 (stereo not shown) | – | – | MIC ([1]; Escherichia coli, ATCC25922; alone (no serum); read-out: MIC (E. coli) alone): 2 to 3 mM (≈ 675 to 1010 µg/mL); MIC ([1]; Escherichia coli, ATCC25922; with serum; read-out: MIC (E. coli) +serum): 3 to 6 mM (≈ 1010 to 2020 µg/mL); MIC ([2]; Staphylococcus aureus, ATCC13709; alone (no serum); read-out: MIC (S. aureus) alone): 2 mM (≈ 675 µg/mL); MIC ([2]; Staphylococcus aureus, ATCC13709; with serum; read-out: MIC (S. aureus) +serum): 2 to 3 mM (≈ 675 to 1010 µg/mL)
CN(C)CCCOc1ccc(C(NC(=O)c2ccc(-c3cccc(NC(=O)c4ccc(-c5cccc(F)c5)cc4)c3)o2)C(=O)N2CCNCC2)cc1 (stereo not shown) | 6 to 13 (≈ 4220 to 9150 µg/mL) | 3 to 6 (≈ 2110 to 4220 µg/mL) | –
CC(=O)c1ccccc1-c1ccc(C(=O)Nc2cccc(-c3ccc(C(=O)NC(C(=O)N4CCNCC4)c4ccc(OCCCN(C)C)cc4)o3)c2)cc1 (stereo not shown) | > 100 | 6 to 13 (≈ 4370 to 9460 µg/mL) | –
CCc1ccc(-c2ccc(C(=O)Nc3cccc(-c4ccc(C(=O)NC(C(=O)N5CCNCC5)c5ccc(OCCCN(C)C)cc5)o4)c3)cc2)cc1 (stereo not shown) [Compound 35] | 50 to 100 (≈ 35700 to 71400 µg/mL) | 6 to 13 (≈ 4280 to 9280 µg/mL) | –
CCCc1ccc(-c2ccc(C(=O)Nc3cccc(-c4ccc(C(=O)NC(C(=O)N5CCNCC5)c5ccc(OCCCN(C)C)cc5)o4)c3)cc2)cc1 (stereo not shown) [Compound 36] | > 100 | 13 to 25 (≈ 9460 to 18200 µg/mL) | –
CN(C)CCCOc1ccc(C(NC(=O)c2ccc(-c3cccc(NC(=O)c4ccc(-c5ccc(C(C)(C)C)cc5)cc4)c3)o2)C(=O)N2CCNCC2)cc1 (stereo not shown) [Compound 37] | > 100 | > 100 | –
Cc1ccccc1-c1ccc(C(=O)Nc2cccc(-c3ccc(C(=O)NC(C(=O)N4CCNCC4)c4ccc(OCCCN(C)C)cc4)o3)c2)cc1 (stereo not shown) [Compound 38] | 3 to 6 (≈ 2100 to 4200 µg/mL) | 3 to 6 (≈ 2100 to 4200 µg/mL) | –
Cc1cccc(-c2ccc(C(=O)Nc3cccc(-c4ccc(C(=O)NC(C(=O)N5CCNCC5)c5ccc(OCCCN(C)C)cc5)o4)c3)cc2)c1 (stereo not shown) [Compound 39] | 13 to 25 (≈ 9100 to 17500 µg/mL) | 13 to 25 (≈ 9100 to 17500 µg/mL) | –
CCc1ccccc1-c1ccc(C(=O)Nc2cccc(-c3ccc(C(=O)NC(C(=O)N4CCNCC4)c4ccc(OCCCN(C)C)cc4)o3)c2)cc1 (stereo not shown) [Compound 41] | 13 to 25 (≈ 9280 to 17800 µg/mL) | 3 to 6 (≈ 2140 to 4280 µg/mL) | –
Cc1cccc(-c2ccc(C(=O)Nc3cccc(-c4ccc(C(=O)NC(C(=O)N5CCNCC5)c5ccc(OCCCN(C)C)cc5)o4)c3)cc2)c1C (stereo not shown) [Compound 42] | – | – | MIC ([1]; Escherichia coli, ATCC25922, 24 h; read-out: MIC (E. coli)): 13 to 25 mM (≈ 9280 to 17800 µg/mL); MIC ([2]; Staphylococcus aureus, ATCC13709, 24 h; read-out: MIC (S. aureus)): 3 to 6 mM (≈ 2140 to 4280 µg/mL)
Cc1ccc(C)c(-c2ccc(C(=O)Nc3cccc(-c4ccc(C(=O)NC(C(=O)N5CCNCC5)c5ccc(OCCCN(C)C)cc5)o4)c3)cc2)c1 (stereo not shown) [Compound 43] | 25 to 50 (≈ 17800 to 35700 µg/mL) | 13 to 25 (≈ 9280 to 17800 µg/mL) | –
Cc1cccc(C)c1-c1ccc(C(=O)Nc2cccc(-c3ccc(C(=O)NC(C(=O)N4CCNCC4)c4ccc(OCCCN(C)C)cc4)o3)c2)cc1 (stereo not shown) [Compound 44] | 25 to 50 (≈ 17800 to 35700 µg/mL) | 13 to 25 (≈ 9280 to 17800 µg/mL) | –
Cc1cc(C)c(-c2ccc(C(=O)Nc3cccc(-c4ccc(C(=O)NC(C(=O)N5CCNCC5)c5ccc(OCCCN(C)C)cc5)o4)c3)cc2)c(C)c1 (stereo not shown) [Compound 45] | 50 to 100 (≈ 36400 to 72800 µg/mL) | 13 to 25 (≈ 9460 to 18200 µg/mL) | –
CN(C)CCCOc1ccc(C(NC(=O)c2ccc(-c3cccc(NC(=O)c4ccc(-c5ccccc5Cl)cc4)c3)o2)C(=O)N2CCNCC2)cc1 (stereo not shown) [Compound 47] | 6 to 13 (≈ 4320 to 9360 µg/mL) | 25 to 50 (≈ 18000 to 36000 µg/mL) | –
CN(C)CCCOc1ccc(C(NC(=O)c2ccc(-c3cccc(NC(=O)c4ccc(-c5cccc(Cl)c5)cc4)c3)o2)C(=O)N2CCNCC2)cc1 (stereo not shown) [Compound 48] | 13 to 25 (≈ 9360 to 18000 µg/mL) | 13 to 25 (≈ 9360 to 18000 µg/mL) | –
CN(C)CCCOc1ccc(C(NC(=O)c2ccc(-c3cccc(NC(=O)c4ccc(-c5cc(Cl)cc(Cl)c5)cc4)c3)o2)C(=O)N2CCNCC2)cc1 (stereo not shown) [Compound 49] | > 100 | > 100 | –
